Results taken from US20250353860A1, “PIPERIDINE CARBOXAMIDE AZAINDANE DERIVATIVE, METHOD FOR PREPARING SAME, AND USE THEREOF” (BRISE PHARMACEUTICALS CO., LTD., priority 2022, published 2025).

Assays:
CGRP receptor = CGRP receptor (Homo sapiens, UniProt O60894+Q16602); assay: Affinity for human CGRP receptor ([125I]h-CGRPα competition, CHO cell membranes); assay type: binding; design: host or cells: CHO-K1; conditions: 0.03 nM [125I]h-CGRPα; Cheng Prusoff; read-out: Ki of the affinity determination to human CGRP receptor
Experimental: The cell membrane homogenate of CHO cells expressing human CGRP receptor (comprising 16 μg of protein) was incubated with 0.03 nM [^125I]h-CGRPα and gradiently diluted test samples in buffer (50 mM Hepes-NaOH (pH 7.4), 10 mM MgCl2, 4 mM KCl, 10 mM […], 1 mM EDTA, 1 μM phosphorylation amide, 0.3% BSA and 0.04% bacitracin) at 22° C. for 90 minutes. A control group without the test sample was set up to obtain the highest binding signal of the experiment, and the non-specific binding of the experiment was determined by adding 1 μM non-isotope-labeled h-CGRPα to the control group. After the incubation, a glass fiber filter (GF/B, Packard) soaked with 0.3% PEI was placed in a 96-well cell collector (Unfilter, Packard), and the sample was quickly filtered under vacuum and rinsed several times with precooled buffer comprising 50 mM Tris-HCl and 150 mM NaCl. After the filter was dried, scintillation fluid (Microscint 0, Packard) was added and the radioactive signal value was measured using a scintillation counter (Topcount, Packard). The results are expressed as the percentage of inhibition of specific binding of the radioligand. Non-isotope labeled h-CGRPα was used as a standard sample as a control. The test samples and standard samples were tested at multiple concentrations to obtain a competition curve with [^125I]h-CGRPα, thereby calculating the IC50) 20 of each sample. The inhibition constant Ki was further calculated using the Cheng Prusoff equation: Ki=IC50/(1+L/KD), wherein L represents the concentration of [^125I]h-CGRPα in the system (0.03 nM), and KD represents the dissociation constant between [^125I]h-CGRPα and the human CORP receptor in the system (0.06 nM).

[1] = test system: Cynomolgus monkey blood flow; assay: Capsaicin-induced Cynomolgus monkey blood flow model; assay type: in vivo, Cynomolgus monkeys; conditions: N = 3
Experimental: In the capsaicin-induced Cynomolgus monkey blood flow model, the inhibitory effect of the compounds of the present application on cynomolgus monkey blood flow was evaluated.
In Example 1A and Example 3A, 100% polyethylene glycol 400 was used as the vehicle.
Experimental animals: male cynomolgus monkeys, with a body weight range of 3.2 kg to 5.80 kg during the administration period, purchased from Guangxi Xiongsen Primate Experimental Animal Breeding and Development Co., Ltd., production license: SCXK (Gui) 2016-0003; experimental animal quality certificate number: NO. 0002942.
Housing conditions: animals were kept in stainless steel cages by a single cage feeding method. The cage specifications are length×width×height=1 m×1 m×0.8 m. Before anesthesia with zoletil, the animals need to be fasted (but not water). The rest of the time, the animals were fed once in the morning and afternoon, about 100 g each time for one animal, supplemented with fresh fruits. The temperature of the animal room was set at 18-26° C., the humidity was 40-70%, and the lighting was alternating between light and dark for 12 hours.
After adaptive feeding, 10 cynomolgus monkeys were randomly selected, and the basal values were recorded using a moorFLPI-2 laser speckle blood flowmeter before capsaicin stimulation. After capsaicin stimulation, blood flow was tested again, and animals with an area under the time-blood flow rate curve (AUC)≥1000 (min·%) and small individual differences were selected to enter this experiment.
The blank vehicle control group was given 100% polyethylene glycol 400, and the drug administration group was given high and low doses of Example 1A and Example 3A (dissolved in 100% polyethylene glycol 400), respectively.
Note: Bolus is a large-dose push injection; Infusion is a small-dose continuous infusion.
Blood flow detection: all animals were given capsaicin once on the day of administration, and blood flow was detected at 0 min (before capsaicin administration), 5 min, 10 min, 15 min, 20 min and 30 min after capsaicin administration to monitor blood flow changes during this period. After the experiment ended that day, washout was carried out at intervals of 7-10 days, during which the experimental animals were rotated in turn. This type of experiment was repeated three times to obtain the average value of each group of data.
The blood flow change rate, AUC (area under the blood flow change rate-time curve) and blood flow inhibition rate were calculated using Excel.

[2] = 5 min after capsaicin, 0.3 μg/kg + 0.03 μg/kg/min
[3] = 5 min after capsaicin, 1 μg/kg + 0.1 μg/kg/min
[4] = 10 min after capsaicin, 0.3 μg/kg + 0.03 μg/kg/min
[5] = 10 min after capsaicin, 1 μg/kg + 0.1 μg/kg/min
[6] = 15 min after capsaicin, 0.3 μg/kg + 0.03 μg/kg/min
[7] = 15 min after capsaicin, 1 μg/kg + 0.1 μg/kg/min
[8] = 20 min after capsaicin, 0.3 μg/kg + 0.03 μg/kg/min
[9] = 20 min after capsaicin, 1 μg/kg + 0.1 μg/kg/min
[10] = 30 min after capsaicin, 0.3 μg/kg + 0.03 μg/kg/min
[11] = 30 min after capsaicin, 1 μg/kg + 0.1 μg/kg/min

| Ki (CGRP receptor) [nM] | SMILES | AUC (area under the blood flow change rate-time curve) ([1]; 0.3 μg/kg + 0.03 μg/kg/min) [%-min] | AUC (area under the blood flow change rate-time curve) ([1]; 1 μg/kg + 0.1 μg/kg/min) [%-min] | Blood flow change rate [1, 2] [%] | Blood flow change rate [1, 3] [%] | Blood flow change rate [1, 4] [%] | Blood flow change rate [1, 5] [%] | Blood flow change rate [1, 6] [%] | Blood flow change rate [1, 7] [%] | Blood flow change rate [1, 8] [%] | Blood flow change rate [1, 9] [%] | Blood flow change rate [1, 10] [%] | Blood flow change rate [1, 11] [%] |
| --- | --- | --- | --- | --- | --- | --- | --- | --- | --- | --- | --- | --- | --- |
| 0.0098 | C[C@@H]1[C@H](c2c(F)ccc(F)c2F)C[C@H](NC(=O)c2cnc3c(c2)C[C@@]2(C3)C(=O)Nc3ncccc32)C(=O)N1CC(F)(F)F [Atogepant, reference compound] | – | – | – | – | – | – | – | – | – | – | – | – |
| 0.019 | C[C@@H]1[C@H](c2c(F)ccc(F)c2F)C[C@H](NC(=O)c2cc3c(s2)C[C@]2(C3)C(=O)Nc3ncccc32)C(=O)N1CC(F)(F)F [Example 3A, (S)—N-((3S,5S,6R)-6-methyl-2-oxo-1-(2,2,2-trifluoroethyl)-5-(2,3,6-trifluorophenyl)piperidin-3-yl)-2′-oxo-1′,2′,4,6-tetrahydrospiro[cyclopenta[b]thiophene-5,3′-pyrrolo[2,3-b]pyridine]-2-carboxamide] | 1481 | 395 | 69 | 27 | 71 | 35 | 69 | 25 | 48 | 3 | 49 | 1 |
| 0.017 | C[C@@H]1[C@H](c2c(F)ccc(F)c2F)C[C@H](NC(=O)c2cc3c(o2)CC[C@]2(C3)C(=O)Nc3ncccc32)C(=O)N1CC(F)(F)F [Example 1A, (R)—N-((3S,5S,6R)-6-methyl-2-oxo-1-(2,2,2-trifluoroethyl)-5-(2,3,6-trifluorophenyl)piperidin-3-yl)-2′-oxo-1′,2′,6,7-tetrahydro-4H-spiro[benzofuran-5,3′-pyrrolo[2,3-b]pyridine]-2-carboxamide] | 454 | 198 | 26 | 12 | 37 | 21 | 26 | 5 | 12 | 9 | −4 | −6 |
